Values joined by “and” are separate entries in the source; they are usually repeats but may differ in a detail not shown here. Equal values may be shown once.
Test system: 324938-238-R-J1-PDC complex spheroid viability
Experiment: Anticancer human tumor 324938-238-R-J1-PDC patient-derived bladder carcinoma cell line growth inhibition
Conditions: for viability, T/C: stronger effect = lower value; for IC50: curve of compound
From the text: Multicellular complex tumor spheroid response to LSD1 Inhibitor Iadademstat in combination with a variety of drugs and investigational agents in selected tumor cell lines
The current study was undertaken to assess response to LSD1 inhibitors in combination with standard-of-care drugs and investigational agents in solid tumor complex spheroid models as well as in the K-562 leukemia. Complex spheroids include a stromal component modeled by human endothelial cells (HUVEC) and fibroblasts modeled by human mesenchymal stem cells (MSCs). The concentration ranges selected for each drug and investigational agent were based upon clinically achievable concentrations if the clinical Cmax of the agent was known.
Compounds. The drugs and investigational agents used in this study are listed on Table 1. All of the agents used, including staurosporine (NSC755774) and gemcitabine (NSC613327), were obtained from the Developmental Therapeutics Program, NCI. FDA-approved anticancer drugs are available from the NCI at http://dtp.nci.nih.gov/branches/dscb/oncology_drugset_explanation.html. Drugs and investigational agents were >95% pure by proton nuclear magnetic resonance (NMR) and liquid chromatography/mass spectrometry (LC/MS). Stock solutions were prepared at 400x in DMSO, stored at -70 degrees C, and diluted in fresh medium prior to their use. The final concentration of DMSO in cell culture wells never exceeded 0.25% (v/v). The FDA-approved anticancer drug set is available from the Developmental Therapeutics Program at https://dtp.cancer.gov/organization/dscb/obtaining/available_plates.htm. All drugs and investigational agents were tested over a range starting from a high concentration at or near the clinical Cmax and decreasing in half-log increments. If the clinical Cmax for an agent had not been determined, the highest concentration tested was 10 microM.
Cell Lines. The patient-derived cancer cell (PDC) lines: 292921-168-R-J2-PDC, K24384-001-R-PDC, and 521955-158-R2-J5-PDC pancreatic carcinomas, 556581-035-R-J1 ovarian carcinoma, 324938-238-R-J1-PDC, 855422-203-R-J1-PDC and 883617-216-R-J1-PDC urothelial bladder carcinomas, 743489-274-T-PDC renal cell carcinoma, 138582-R-J1 Merkel cell tumor, K60290-347-R-J1 and K57222-313-R-J1-PDC glioblastomas, 653999-131-R-J2-PDC, LG0703-F948-PDC, and 349418-098-R-PDC non-small cell lung carcinomas, 885512-296-R-J2-PDC, 171881-019-R-J1-PDC breast carcinomas and 186277-243-T-J2-PDC and 233499-124-R-J2-PDC colon carcinomas were obtained from the NCI Patient-Derived Models Repository (PDMR, https://pdmr.cancer.gov). The established cell lines NCI/ADR-RES (RRID:CVCL_14520 and OVCAR-5 (RRID:CVCL_1628) ovarian carcinomas, 786-O (RRID:CVCL_1051) and A498 (RRID:CVCL_A498) renal cell carcinoma, NCI-H211 (ATCC, cat. CRL-5824; RRID:CVCL_1529), NCI-H196 (ATCC, cat. CRL-5823, RRID:CVCL_1509), SW 1271 (ATCC, cat. CRL-2177, RRID:CVCL_1716) and NCI-H1876 (ATCC, cat. CRL-5902, RRID:CVCL_1503) small cell lung carcinomas, MDA-MB-231 (RRID:CVCL_0062) and MDA-MB-468 (RRID:CVCL_0419)breast carcinomas (10-12). Pooled donor human umbilical vein endothelial cells (HUVEC, Lonza, cat. CC-2519) and human mesenchymal stem cells (hMSC, Lonza, cat. PT-2501) were purchased from Lonza (Walkersville, MD).
Cell Culture. All cells were maintained in an incubator at 37 degrees C and 5% CO2 with 95% humidity. The PDC lines were cultured according to standard operating procedures established by the NCI PDMR (https://pdmr.cancer.gov). Briefly all PDCs were thawed and cultured in Matrigel-coated flasks prepared with a working solution of 1X Ham's F-12 nutrient mix, without supplementation (Invitrogen, Waltham, MA, cat. 11765054), 100 U/mL penicillin-streptomycin (Invitrogen, cat. 15140122), and 2.5% Matrigel (Corning Inc., Corning, NY, cat. 354248) for the first three passages. […]
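Further: spheroids also contain HUVEC and human MSCs and agents combined with iadademstat; spheroids exposed to agents for 7 days before readout.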

Structure (SMILES) | viability, T/C (compound 0.000316 µM) | viability, T/C (compound 0.001 µM) | viability, T/C (compound 0.00316 µM) | viability, T/C (compound 0.01 µM) | viability, T/C (compound 0.0316 µM) | viability, T/C (compound 0.1 µM) | IC50 | viability, T/C (compound 0.316 µM) | viability, T/C (compound 1 µM) | viability, T/C (compound 0.000949 µM) | viability, T/C (compound 0.003 µM) | viability, T/C (compound 0.00949 µM) | viability, T/C (compound 0.03 µM) | viability, T/C (compound 0.0949 µM) | viability, T/C (compound 0.3 µM) | viability, T/C (compound 0.949 µM) | viability, T/C (compound 3 µM)
CC(C)CC(NC(=O)C(Cc1ccccc1)NC(=O)c1cnccn1)B(O)O (centres undefined) | 95.8% and 79.7% | 21.5% and 7.74% | 0.55% and 0.19% | 0.21% and 1.23% | 0.46% and 0.17% | 0.24% and 0.28% | 0.643 nM and 0.508 nM | – | – | – | – | – | – | – | – | – | –
CC(C)CC(NC(=O)CNC(=O)c1cc(Cl)ccc1Cl)B1OC(=O)CC(CC(=O)O)(C(=O)O)O1 (centres undefined) | 104% and 111% | 106% and 77.7% | 38.2% and 23.3% | 5.09% and 2.42% | 0.23% and 0.77% | 0.23% and 0.24% | 2.58 nM and 1.79 nM | – | – | – | – | – | – | – | – | – | –
CC1COCCN1c1cc(-c2ccnn2C)c2ccnc(-c3ccn[nH]3)c2n1 (centres undefined) | – | – | 101% | 103% and 83.1% | 60.4% and 48.2% | 33.5% and 25.6% | 51.4 nM and 31.1 nM | 18.6% and 14.7% | 13.1% and 10.3% | – | – | – | – | – | – | – | –
CC[C@@]1(O)C(=O)OCc2c1cc1n(c2=O)Cc2cc3c(CN(C)C)c(O)ccc3nc2-1 | 101% and 94.5% | 93% and 83.5% | 31.2% and 27.9% | 8.43% and 7.17% | 8.29% and 8.05% | 8.03% and 7.71% | 2.23 nM and 2 nM | – | – | – | – | – | – | – | – | – | –
CCc1c2c(nc3ccc(O)cc13)-c1cc3c(c(=O)n1C2)COC(=O)[C@]3(O)CC | – | – | – | – | – | – | < 0.949 nM | – | – | 7.99% and 9.82% | 9.25% and 10.8% | 6.79% and 6.81% | 2.02% and 1.48% | 0.16% and 0.66% | 0.2% and 0.27% | – | –
COc1cc(C2c3cc4c(cc3C(OC3OC5COC(C)OC5C(O)C3O)C3COC(=O)C23)OCO4)cc(OC)c1O (centres undefined) | – | – | – | – | – | – | 67.5 nM and 63.9 nM | – | – | – | – | 97.2% and 106% | 84.8% and 76% | 34.7% and 35.1% | 20.9% and 20.7% | 19.2% and 17.7% | 8.35% and 8.98%
COc1cc(Nc2ncc3c(n2)-c2ccc(Cl)cc2C(c2c(F)cccc2OC)=NC3)ccc1C(=O)O | – | – | 91.2% and 90.6% | 76.9% and 59% | 35.7% and 26.8% | 19.6% and 15.6% | 21.2 nM and 13.8 nM | 18.6% and 13.9% | 15.3% and 14.3% | – | – | – | – | – | – | – | –
